In patent publication US20060276495A1, “Treatment methods of nasal congestion and nasal obstruction” (Schering Corporation, priority 2001, published 2006):

Key:
[1] = tested on: seasonal allergic rhinitis patients; test: four double-blinded, randomized clinical trials in seasonal allergic rhinitis patients; format: in vivo, human
From the text: The clinical efficacy and safety of desloratadine has been documented in over 3,200 seasonal allergic rhinitis patients in four double-blinded, randomized clinical trials.
Efficacy endpoints in all the studies were Total Symptom Score, Total Nasal Symptom Score, Total Non-nasal Symptom Score, and Health Quality of Life (HQOL) analysis in efficacy trials. […] An important efficacy endpoint analyzed in the desloratadine studies is the AM NOW total symptom score. This parameter measures the total symptom relief by the patient after 24 hours before taking the next day dose.

[2] = tested on: patients with SAR; test: pooled randomized, parallel-group, double-blind, placebo-controlled studies of nasal congestion/stuffiness in patients with SAR; format: in vivo, human; details: for nasal congestion/stuffiness severity score (0-3), 14-day average change from baseline: baseline score 2.4
Method: The effects of desloratadine on nasal congestion/stuffiness are described by using data pooled from randomized, parallel-group, double-blind, placebo-controlled studies of desloratadine in patients with SAR. Patients (12-75 years; pooled n-659-662/group) with a ≧2-year history of seasonal allergic rhinitis and moderate-to-[…] severe symptoms present at the time of enrollment received desloratadine (5 mg or 7.5 mg) or placebo PO once a day for 14 days. The severity (0=none, 1=mild, 2=moderate, 3=severe) of congestion/stuffiness was assessed by patients for the study duration. The 14-day average change in symptom severity score from baseline was assessed. The mean symptom severity score for nasal congestion/stuffiness was 2.4 in each treatment group at baseline, indicating patients had moderate-to-severe nasal congestion before receiving treatment.

`Clc1ccc2c(c1)CCc1cccnc1C2=C1CCNCC1` [Desloratadine, desloratadine] was tested, and the “total symptom scores (sum of individual scores for rhinorrhea, sneezing, congestion/stuffiness, nasal itching, itchy/burning eyes, tearing, ocular redness, itchy ears/palate)” value ([1]; 5 mg once daily, adult and adolescent SAR patients) was “significantly reduced”, the “reducing nasal symptoms vs placebo” value ([1]; 5 mg, p<0.01 vs placebo) was “significantly (p<0.01) more effective than placebo” and the “AM NOW total symptom score (symptom relief after 24 hours, before next day dose)” value ([1]; entire 5 mg to 20 mg dosage range, p<0.05) was “Statistically significant (p<0.05) reductions were maintained for the full 24 hour dosing interval”. For the same compound, the “nasal congestion/stuffiness severity score (0-3), 14-day average change from baseline” value ([2]; 5 mg PO once a day for 14 days, P=0.02 vs placebo) was “significantly decreased”, the total symptom severity ([2]; 5 mg or 7.5 mg PO once a day for 14 days, vs placebo) was “significantly decreased” and the “nasal congestion/stuffiness severity score (0-3), 14-day average change from baseline” value ([2]; 7.5 mg PO once a day for 14 days, P=0.01 vs placebo) was “significantly decreased”.
